The structures appear in SMILES notation.

The subject of the experiment is MV-4-11 cells. The experiment is described as follows: Gene expression microarray analysis (Affymetrix PrimeView) and GSEA. Format: cell-based, human. Details: RFU PODN (11730768_x_at) / Fold change /veh PODN (11730768_x_at) / RFU LINC00158 (11744669_a_at) / Fold change /veh LINC00158 (11744669_a_at) / RFU DUSP10 (11751237_a_at) / Fold change /veh DUSP10 (11751237_a_at) / RFU ID3 (11757404_x_at) / Fold change /veh ID3 (11757404_x_at) / RFU PLEKHG5 (11737974_s_at) / Fold change /veh PLEKHG5 (11737974_s_at) / RFU LRRC4B (11730491_at) / Fold change /veh LRRC4B (11730491_at) / RFU GIMAP4 (11747438_a_at) / Fold change /veh GIMAP4 (11747438_a_at) / RFU KRT8 (11758183_x_at) / Fold change /veh KRT8 (11758183_x_at) / RFU CNN1 (11734310_a_at) / Fold change /veh CNN1 (11734310_a_at) / RFU VPS37D (11726825_at) / Fold change /veh VPS37D (11726825_at) / RFU C10orf10 (11716522_x_at) / Fold change /veh C10orf10 (11716522_x_at) / RFU KIR2DL2 /// KIR2DL4 /// KIR2DL5A /// KIR2DL5B /// KIR2DS1 /// KIR2DS2 /// KIR2DS3 /// KIR2DS4 /// KIR3DL3 /// KIR3DL3 /// KIR3DS1 (11738374_at) / Fold change /veh KIR2DL2 /// KIR2DL4 /// KIR2DL5A /// KIR2DL5B /// KIR2DS1 /// KIR2DS2 /// KIR2DS3 /// KIR2DS4 /// KIR3DL3 /// KIR3DL3 /// KIR3DS1 (11738374_at) / RFU C1QL1 (11718748_at) / Fold change /veh C1QL1 (11718748_at) / RFU TMPRSS4 (11747572_a_at) / Fold change /veh TMPRSS4 (11747572_a_at) / RFU HAMP (11756126_x_at) / Fold change /veh HAMP (11756126_x_at) / RFU RNFT2 (11725882_a_at) / Fold change /veh RNFT2 (11725882_a_at) / RFU NR4A2 (11747474_a_at) / Fold change /veh NR4A2 (11747474_a_at) / RFU ABCC12 (11746883_a_at) / Fold change /veh ABCC12 (11746883_a_at) / RFU TMEM136 (11760407_x_at) / Fold change /veh TMEM136 (11760407_x_at) / RFU CLDN22 /// WWC2 (11732394_at) / Fold change /veh CLDN22 /// WWC2 (11732394_at) / RFU HLA-DPB1 (11760878_x_at) / Fold change /veh HLA-DPB1 (11760878_x_at) / RFU SPINT1 (11716480_a_at) / Fold change /veh SPINT1 (11716480_a_at) / RFU GAP43 (11754022_s_at) / Fold change /veh GAP43 (11754022_s_at) / RFU A4GNT (11735810_at) / Fold change /veh A4GNT (11735810_at) / RFU PRB3 (11715151_x_at) / Fold change /veh PRB3 (11715151_x_at) / RFU TUBB4B (11761932_at) / Fold change /veh TUBB4B (11761932_at) / RFU CAPN14 (11732068_a_at) / Fold change /veh CAPN14 (11732068_a_at) / RFU TMCC2 (11721928_a_at) / Fold change /veh TMCC2 (11721928_a_at) / RFU IRGQ (11745062_a_at) / Fold change /veh IRGQ (11745062_a_at) / RFU FAM174B (11720279_a_at) / Fold change /veh FAM174B (11720279_a_at) / RFU TMPRSS4 (11748680_a_at) / Fold change /veh TMPRSS4 (11748680_a_at) / RFU FAM212B (11763350_a_at) / Fold change /veh FAM212B (11763350_a_at) / RFU PLEKHG5 (11743358_a_at) / Fold change /veh PLEKHG5 (11743358_a_at) / RFU ZSCAN30 (11745921_a_at) / Fold change /veh ZSCAN30 (11745921_a_at) / RFU CMKLR1 (11741424_a_at) / Fold change /veh CMKLR1 (11741424_a_at) / RFU LOC101060620 /// MAPK8IP1 (11723275_at) / Fold change /veh LOC101060620 /// MAPK8IP1 (11723275_at) / RFU SPTSSB (11747773_x_at) / Fold change /veh SPTSSB (11747773_x_at) / RFU PRSS12 (11739890_at) / Fold change /veh PRSS12 (11739890_at) / RFU BIN1 (11741810_x_at) / Fold change /veh BIN1 (11741810_x_at) / RFU WNT11 (11732464_a_at) / Fold change /veh WNT11 (11732464_a_at) / RFU C10orf10 (11716521_a_at) / Fold change /veh C10orf10 (11716521_a_at) / RFU C5orf56 (11738089_at) / Fold change /veh C5orf56 (11738089_at) / RFU CYB561 (11721691_x_at) / Fold change /veh CYB561 (11721691_x_at) / RFU ANKRD19P (11752326_a_at) / Fold change /veh ANKRD19P (11752326_a_at) / RFU OR2T12 /// OR2T33 /// OR2T8 (11738714_s_at) / Fold change /veh OR2T12 /// OR2T33 /// OR2T8 (11738714_s_at) / RFU VCAN (11748164_a_at) / Fold change /veh VCAN (11748164_a_at) / RFU JSRP1 (11732532_at) / Fold change /veh JSRP1 (11732532_at) / RFU KRTAP10-11 (11738290_x_at) / Fold change /veh KRTAP10-11 (11738290_x_at) / RFU MYO3A (11730013_a_at) / Fold change /veh MYO3A (11730013_a_at) / RFU EBF3 (11725865_a_at) / Fold change /veh EBF3 (11725865_a_at) / RFU CAMK2N1 (11719241_x_at) / Fold change /veh CAMK2N1 (11719241_x_at) / RFU C5orf56 (11738088_a_at) / Fold change /veh C5orf56 (11738088_a_at) / RFU OLFML3 (11715873_a_at) / Fold change /veh OLFML3 (11715873_a_at) / RFU LOC100653217 /// NTM (11731650_a_at) / Fold change /veh LOC100653217 /// NTM (11731650_a_at) / RFU MAPK11 (11762145_a_at) / Fold change /veh MAPK11 (11762145_a_at) / RFU FIZ1 (11724087_x_at) / Fold change /veh FIZ1 (11724087_x_at) / RFU OASL (11726364_x_at) / Fold change /veh OASL (11726364_x_at) / RFU SOX15 (11748057_x_at) / Fold change /veh SOX15 (11748057_x_at) / RFU CD79A (11719716_a_at) / Fold change /veh CD79A (11719716_a_at) / RFU HIST1H1D (11736915_at) / Fold change /veh HIST1H1D (11736915_at) / RFU CASKIN2 (11723855_a_at) / Fold change /veh CASKIN2 (11723855_a_at) / RFU LOC730098 (11760151_x_at) / Fold change /veh LOC730098 (11760151_x_at) / RFU OR4N2 (11742367_at) / Fold change /veh OR4N2 (11742367_at) / RFU PRRT2 (11749266_a_at) / Fold change /veh PRRT2 (11749266_a_at) / RFU SNX32 (11753110_a_at) / Fold change /veh SNX32 (11753110_a_at) / RFU CDHR5 (11726645_a_at) / Fold change /veh CDHR5 (11726645_a_at) / RFU RCAN1 (11760418_a_at) / Fold change /veh RCAN1 (11760418_a_at) / RFU FAM167A (11723789_a_at) / Fold change /veh FAM167A (11723789_a_at) / RFU FAM26E (11764081_at) / Fold change /veh FAM26E (11764081_at) / RFU ISYNA1 (11749810_s_at) / Fold change /veh ISYNA1 (11749810_s_at) / RFU ACY1 (11761880_at) / Fold change /veh ACY1 (11761880_at) / RFU 11764098_at / Fold change /veh 11764098_at / RFU SAMD14 (11745864_x_at) / Fold change /veh SAMD14 (11745864_x_at) / RFU NPB (11741838_a_at) / Fold change /veh NPB (11741838_a_at) / RFU TMPRSS6 (11731388_a_at) / Fold change /veh TMPRSS6 (11731388_a_at) / RFU KRTAP10-2 (11738614_at) / Fold change /veh KRTAP10-2 (11738614_at) / RFU ARHGAP8 /// PRR5-ARHGAP8 (11727945_x_at) / Fold change /veh ARHGAP8 /// PRR5-ARHGAP8 (11727945_x_at) / RFU KRTAP5-7 /// NADSYN1 (11734609_at) / Fold change /veh KRTAP5-7 /// NADSYN1 (11734609_at) / RFU RASL12 (11751679_a_at) / Fold change /veh RASL12 (11751679_a_at) / RFU CDKN2B (11736163_a_at) / Fold change /veh CDKN2B (11736163_a_at) / RFU PRF1 (11729649_at) / Fold change /veh PRF1 (11729649_at) / RFU, ZNF638 /// ZNF638-IT1 / Fold change vs veh, ZNF638 /// ZNF638-IT1 / RFU, PANK3 / Fold change vs veh, PANK3 / RFU, SH3YL1 / Fold change vs veh, SH3YL1 / RFU, ZEB2 / Fold change vs veh, ZEB2 / RFU, NRIP1 / Fold change vs veh, NRIP1 / RFU, PTTG1IP / Fold change vs veh, PTTG1IP / RFU, CAPN2 / Fold change vs veh, CAPN2 / RFU, MED14 / Fold change vs veh, MED14 / RFU, SNORA58 / Fold change vs veh, SNORA58 / RFU, C1orf63 / Fold change vs veh, C1orf63 / RFU, LRRFIP1 / Fold change vs veh, LRRFIP1 / RFU, NDUFAF7 / Fold change vs veh, NDUFAF7 / RFU, SLC12A2 / Fold change vs veh, SLC12A2 / RFU, IBTK / Fold change vs veh, IBTK / RFU, ESF1 / Fold change vs veh, ESF1 / Fold change vs veh, TMEM50B / RFU, TAOK1 / Fold change vs veh, TAOK1 / RFU, ACBD3 / Fold change vs veh, ACBD3 / RFU, TMA16 / Fold change vs veh, TMA16 / RFU, RWDD3 / Fold change vs veh, RWDD3 / RFU, BCAT1 / Fold change vs veh, BCAT1 / RFU, EDEM3 / Fold change vs veh, EDEM3 / RFU, TMEM33 / Fold change vs veh, TMEM33 / RFU, WDR75 / Fold change vs veh, WDR75 / RFU, AHCTF1 / Fold change vs veh, AHCTF1 / RFU, TFRC / Fold change vs veh, TFRC / RFU, ZDHHC17 / Fold change vs veh, ZDHHC17 / RFU, NOM1 / Fold change vs veh, NOM1 / RFU, ARL8B / Fold change vs veh, ARL8B / RFU, ZBTB11 / Fold change vs veh, ZBTB11 / RFU, TAMM41 / Fold change vs veh, TAMM41 / RFU, KIAA1704 /// LOC100996395 / Fold change vs veh, KIAA1704 /// LOC100996395 / RFU, ING1 / Fold change vs veh, ING1 / RFU, TRMT61B / Fold change vs veh, TRMT61B / RFU, FUBP3 / Fold change vs veh, FUBP3 / RFU, TP53 / Fold change vs veh, TP53 / RFU, TNKS2 / Fold change vs veh, TNKS2 / RFU, ZFP14 / Fold change vs veh, ZFP14 / RFU, ACTR2 / Fold change vs veh, ACTR2 / RFU, PPP3R1 / Fold change vs veh, PPP3R1 / RFU, PIK3R1 / Fold change vs veh, PIK3R1 / RFU, HNRNPA1 / Fold change vs veh, HNRNPA1 / RFU, RNF170 / Fold change vs veh, RNF170 / RFU, ZNF28 / Fold change vs veh, ZNF28 / RFU, RNGTT / Fold change vs veh, RNGTT / RFU, OGT / Fold change vs veh, OGT / RFU, BRD1 / Fold change vs veh, BRD1 / RFU, MARS / Fold change vs veh, MARS / RFU, ZNF655 / Fold change vs veh, ZNF655 / RFU, FAHD1 / Fold change vs veh, FAHD1 / RFU, BDP1 / Fold change vs veh, BDP1 / RFU, LRRCC1 / Fold change vs veh, LRRCC1 / RFU, ARID1A / Fold change vs veh, ARID1A / RFU, ZNF146 / Fold change vs veh, ZNF146 / RFU, ZNF330 / Fold change vs veh, ZNF330 / RFU, GPN3 / Fold change vs veh, GPN3 / RFU, C9orf123 / Fold change vs veh, C9orf123 / RFU, N4BP2L2 / Fold change vs veh, N4BP2L2 / RFU, ARFIP1 / Fold change vs veh, ARFIP1 / RFU, FAM179B / Fold change vs veh, FAM179B / RFU, BCL10 / Fold change vs veh, BCL10 / RFU, UHRF1BP1L / Fold change vs veh, UHRF1BP1L / RFU, BET1 / Fold change vs veh, BET1 / RFU, CNOT2 / Fold change vs veh, CNOT2 / RFU, ZNF268 / Fold change vs veh, ZNF268 / Fold change vs veh, ZNF507 / RFU, DGCR2 / Fold change vs veh, DGCR2 / RFU, WDSUB1 / Fold change vs veh, WDSUB1 / Fold change vs veh, HSP90B1 /// MIR3652 / RFU, ADSS / Fold change vs veh, ADSS / RFU, GK / Fold change vs veh, GK / RFU, ZNF148 / Fold change vs veh, ZNF148 / RFU, TAF9 / Fold change vs veh, TAF9 / RFU, SLC1A5 / Fold change vs veh, SLC1A5 / RFU, SLMO2 / Fold change vs veh, SLMO2 / RFU, ABCC4 / Fold change vs veh, ABCC4 / RFU, LOC101060439 /// RAP1B / Fold change vs veh, LOC101060439 /// RAP1B / RFU, RFX7 / Fold change vs veh, RFX7 / RFU, GTPBP10 / Fold change vs veh, GTPBP10 / RFU, CNEP1R1 / Fold change vs veh, CNEP1R1 / RFU, BIVM-ERCC5 /// ERCC5 / Fold change vs veh, BIVM-ERCC5 /// ERCC5 / RFU, ILF3 / Fold change vs veh, ILF3 / RFU 11762660_at / Fold change /veh 11762660_at / RFU VCAN (11757783_s_at) / Fold change /veh VCAN (11757783_s_at) / RFU DDX43 (11728927_at) / Fold change /veh DDX43 (11728927_at) / RFU KRT8 (11758188_x_at) / Fold change /veh KRT8 (11758188_x_at) / RFU NKD1 (11759106_at) / Fold change /veh NKD1 (11759106_at) / RFU SRD5A1 (11742802_a_at) / Fold change /veh SRD5A1 (11742802_a_at) / RFU TPSAB1 /// TPSB2 (11721975_s_at) / Fold change /veh TPSAB1 /// TPSB2 (11721975_s_at) / RFU GSTM3 (11746129_a_at) / Fold change /veh GSTM3 (11746129_a_at) / RFU IL23R (11737362_x_at) / Fold change /veh IL23R (11737362_x_at) / RFU TMEM51 (11727254_a_at) / Fold change /veh TMEM51 (11727254_a_at) / RFU PIWIL2 (11732686_x_at) / Fold change /veh PIWIL2 (11732686_x_at) / RFU ORM1 (11744905_x_at) / Fold change /veh ORM1 (11744905_x_at) / RFU CCDC152 (11743942_at) / Fold change /veh CCDC152 (11743942_at) / RFU ECM1 (11717891_a_at) / Fold change /veh ECM1 (11717891_a_at) / RFU IL23R (11748794_a_at) / Fold change /veh IL23R (11748794_a_at) / RFU TNFAIP8L3 (11732012_x_at) / Fold change /veh TNFAIP8L3 (11732012_x_at) / RFU MBOAT4 (11741988_at) / Fold change /veh MBOAT4 (11741988_at) / RFU 11764193_at / Fold change /veh 11764193_at / RFU TMEM53 (11763286_at) / Fold change /veh TMEM53 (11763286_at) / RFU MAGEB2 (11727129_at) / Fold change /veh MAGEB2 (11727129_at) / RFU TMEM200A (11744735_a_at) / Fold change /veh TMEM200A (11744735_a_at) / RFU CCDC152 (11751479_a_at) / Fold change /veh CCDC152 (11751479_a_at) / RFU FAM211A (11726209_a_at) / Fold change /veh FAM211A (11726209_a_at) / RFU RGS16 (11746705_a_at) / Fold change /veh RGS16 (11746705_a_at) / RFU VCAN (11755009_s_at) / Fold change /veh VCAN (11755009_s_at) / RFU RHOB (11743442_s_at) / Fold change /veh RHOB (11743442_s_at) / RFU RGS16 (11720943_a_at) / Fold change /veh RGS16 (11720943_a_at) / RFU RGS16 (11720944_at) / Fold change /veh RGS16 (11720944_at) / RFU, VPS4B / Fold change vs veh, VPS4B / RFU, CREB1 / Fold change vs veh, CREB1 / RFU, DNAJC13 / Fold change vs veh, DNAJC13 / RFU, GNAQ / Fold change vs veh, GNAQ / RFU, CDK5R1 / Fold change vs veh, CDK5R1 / RFU, ZRANB3 / Fold change vs veh, ZRANB3 / RFU, CUL4A / Fold change vs veh, CUL4A / RFU, CCNY / Fold change vs veh, CCNY / RFU, UFL1 / Fold change vs veh, UFL1 / RFU, COG3 / Fold change vs veh, COG3 / RFU, DIAPH2 / Fold change vs veh, DIAPH2 / RFU, SKA2 / Fold change vs veh, SKA2 / RFU, AFF3 / Fold change vs veh, AFF3 / RFU, LMF1 / Fold change vs veh, LMF1 / RFU, IPO11 / Fold change vs veh, IPO11 / RFU, DFFB / Fold change vs veh, DFFB / RFU, FOXP1 / Fold change vs veh, FOXP1 / RFU, CARD8 / Fold change vs veh, CARD8 / RFU, STRN3 / Fold change vs veh, STRN3 / RFU, ADK / Fold change vs veh, ADK / RFU, RASSF2 / Fold change vs veh, RASSF2 / RFU, WIPF1 / Fold change vs veh, WIPF1 / RFU, LARP1B / Fold change vs veh, LARP1B / RFU, RASA1 / Fold change vs veh, RASA1 / RFU, RB1 / Fold change vs veh, RB1 / RFU, PPFIA1 / Fold change vs veh, PPFIA1 / RFU, MAT2A / Fold change vs veh, MAT2A / RFU, CCT5 / Fold change vs veh, CCT5 / RFU, WDR92 / Fold change vs veh, WDR92 / RFU, CUX1 / Fold change vs veh, CUX1 / RFU, TTC7A / Fold change vs veh, TTC7A / RFU, TMEM135 / Fold change vs veh, TMEM135 / RFU, DEPTOR / Fold change vs veh, DEPTOR / RFU, CPM / Fold change vs veh, CPM / RFU, DNAJB6 / Fold change vs veh, DNAJB6 / RFU, CACNA2D3 / Fold change vs veh, CACNA2D3 / RFU, DTX4 / Fold change vs veh, DTX4 / RFU, TFCP2 / Fold change vs veh, TFCP2 / RFU, GMCL1 /// GMCL1P1 / Fold change vs veh, GMCL1 /// GMCL1P1 / RFU, AEBP2 / Fold change vs veh, AEBP2 / RFU, SNHG1 /// SNORD22 /// SNORD25 /// SNORD26 /// SNORD27 /// SNORD28 /// SNORD29 /// SNORD31 / Fold change vs veh, SNHG1 /// SNORD22 /// SNORD25 /// SNORD26 /// SNORD27 /// SNORD28 /// SNORD29 /// SNORD31 / Fold change (Aza/veh), C12orf56 (ProbeSet 11735607_a_at) / Fold change (ACY-1035/veh), C12orf56 (ProbeSet 11735607_a_at) / Fold change (Aza/veh), FGFR1OP (ProbeSet 11751329_s_at) / Fold change (ACY-1035/veh), FGFR1OP (ProbeSet 11751329_s_at) / Fold change (Aza/veh), VPS36 (ProbeSet 11739960_a_at) / Fold change (ACY-1035/veh), VPS36 (ProbeSet 11739960_a_at) / RFU SYPL1 (11715823_x_at) / Fold change /veh SYPL1 (11715823_x_at) / RFU IGFBP7 (11715501_s_at) / Fold change /veh IGFBP7 (11715501_s_at) / RFU REEP3 (11722064_at) / Fold change /veh REEP3 (11722064_at) / RFU IGLL1 (11728026_x_at) / Fold change /veh IGLL1 (11728026_x_at): dose or concentration left out as unconfirmed. Conditions: MV-4-11 cells, 48 hours.

As for `Nc1ccc(-c2cccs2)cc1NC(=O)c1ccc2c(c1)cc(C1CC1)n2CCN1CCOCC1` [ACY-1035], the “Fold change /veh PLEKHG5 (11737974_s_at)” value stood at 1.09.

Source of the values: article PMC5218480 (PLoS ONE, 2017).
